# From the supplement of paper PMC10307832
# Columns and labels:
# Assay in all cases: relative viability (nuclei count vs DMSO), 5 days (fraction); higher = more cells survive
# BAY61-3606 + Foretinib = compound: COC1=C(C=C(C=C1)C2=CC3=NC=CN3C(=N2)NC4=C(C=CC=N4)C(=O)N)OC [BAY61-3606] + COc1cc2c(Oc3ccc(NC(=O)C4(C(=O)Nc5ccc(F)cc5)CC4)cc3F)ccnc2cc1OCCCN1CCOCC1 [Foretinib] (partner 0.25 µM)
# Outline: (§1)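 Relative viability was taken as the ratio of nuclei in treated wells to nuclei in vehicle wells. Lung cancer cell lines in 1536-well plates received compounds by pin tool one day after seeding, either one drug alone or a fixed anchor-drug dose plus five library-drug doses (not always all listed) in √10 steps. Nuclei were counted on 4× images after 5 days of treatment, and values are medians of duplicate plates.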
# BAY61-3606 + Decitabine = compound: COC1=C(C=C(C=C1)C2=CC3=NC=CN3C(=N2)NC4=C(C=CC=N4)C(=O)N)OC [BAY61-3606] + Nc1ncn([C@H]2C[C@H](O)[C@@H](CO)O2)c(=O)n1 [Decitabine] (partner 2 µM)
# Outline: as §1
# Doxorubicin + Navitoclax = compound: COc1cccc2c1C(=O)c1c(O)c3c(c(O)c1C2=O)C[C@@](O)(C(=O)CO)C[C@@H]3O[C@H]1C[C@H](N)[C@H](O)[C@H](C)O1 [Doxorubicin] + CC1(C)CCC(c2ccc(Cl)cc2)=C(CN2CCN(c3ccc(C(=O)NS(=O)(=O)c4ccc(N[C@H](CCN5CCOCC5)CSc5ccccc5)c(S(=O)(=O)C(F)(F)F)c4)cc3)CC2)C1 [Navitoclax] (partner 0.5 µM)
# Outline: as §1
# Doxorubicin + Decitabine = compound: COc1cccc2c1C(=O)c1c(O)c3c(c(O)c1C2=O)C[C@@](O)(C(=O)CO)C[C@@H]3O[C@H]1C[C@H](N)[C@H](O)[C@H](C)O1 [Doxorubicin] + Nc1ncn([C@H]2C[C@H](O)[C@@H](CO)O2)c(=O)n1 [Decitabine] (partner 2 µM)
# Outline: as §1
Cell Line,relative viability (BAY61-3606 + Foretinib; first compound 0.02 µM),relative viability (BAY61-3606 + Foretinib; first compound 0.06325 µM),relative viability (BAY61-3606 + Foretinib; first compound 0.2 µM),relative viability (BAY61-3606 + Foretinib; first compound 0.6325 µM),relative viability (BAY61-3606 + Foretinib; first compound 2 µM),relative viability (BAY61-3606 + Decitabine; first compound 0.02 µM),relative viability (BAY61-3606 + Decitabine; first compound 0.06325 µM),relative viability (BAY61-3606 + Decitabine; first compound 0.2 µM),relative viability (BAY61-3606 + Decitabine; first compound 0.6325 µM),relative viability (BAY61-3606 + Decitabine; first compound 2 µM),relative viability (Doxorubicin + Navitoclax; first compound 0.001 µM),relative viability (Doxorubicin + Navitoclax; first compound 0.003162 µM),relative viability (Doxorubicin + Navitoclax; first compound 0.01 µM),relative viability (Doxorubicin + Navitoclax; first compound 0.03162 µM),relative viability (Doxorubicin + Navitoclax; first compound 0.1 µM),relative viability (Doxorubicin + Decitabine; first compound 0.001 µM),relative viability (Doxorubicin + Decitabine; first compound 0.003162 µM),relative viability (Doxorubicin + Decitabine; first compound 0.01 µM),relative viability (Doxorubicin + Decitabine; first compound 0.03162 µM),relative viability (Doxorubicin + Decitabine; first compound 0.1 µM)
NCI-H1734,0.825,0.79,0.743,0.836,0.411,0.551,0.512,0.503,0.504,0.388,0.788,1.02,0.847,0.696,0.84,0.491,0.494,0.478,0.462,0.513
NCI-H1563,1.03,0.99,0.893,0.931,0.847,–,–,–,–,–,–,–,–,–,–,–,–,–,–,–
NCI-H441,0.979,1.12,1.15,0.862,0.754,0.249,0.223,0.242,0.256,0.253,–,0.688,0.351,0.308,0.423,0.597,0.241,0.243,0.157,0.183
H3255,0.969,1,0.841,0.995,0.829,0.529,0.571,0.677,0.779,0.509,0.603,0.617,0.53,0.457,0.289,–,0.533,0.604,0.568,0.583
Calu-6,0.894,0.905,0.793,0.773,0.617,–,–,–,–,–,0.835,0.91,0.581,0.24,0.113,–,–,–,–,–
NCI-H1915,1.06,1.09,1.07,1.13,0.613,0.258,0.261,0.265,0.253,0.23,0.778,0.813,0.788,0.784,0.829,0.265,0.263,0.283,0.259,0.271
NCI-H1793,0.79,0.674,–,0.692,0.476,0.504,0.501,0.558,0.539,0.651,–,0.448,0.393,0.478,0.547,–,0.482,0.501,0.403,0.456
HCC-44,–,–,–,–,–,0.939,0.926,0.931,0.911,0.957,1.01,1.15,0.969,1.01,1.03,1.01,1.01,0.902,0.964,0.977
NCI-H1792,–,–,–,–,–,0.605,0.572,0.547,0.617,0.493,0.634,0.556,0.62,0.582,0.597,0.622,0.677,0.57,0.485,0.525
EBC-1,0.105,0.0977,0.0899,0.0956,0.102,–,–,–,–,–,0.488,0.524,0.377,0.171,0.123,–,–,–,–,–
NCI-H1623,0.841,0.919,0.896,0.864,0.846,–,–,–,–,–,–,–,–,–,–,–,–,–,–,–
NCI-H1648,–,–,–,–,–,0.423,0.511,0.504,–,0.445,–,–,–,–,–,0.604,0.451,0.599,0.421,0.495
NCI-H522,–,–,–,–,–,0.68,0.635,0.732,0.742,0.517,–,–,–,–,–,0.647,0.704,0.634,0.683,0.601
IA-LM,1.23,1.09,1.01,1.13,0.959,–,–,–,–,–,0.616,0.821,0.6,0.278,0.0497,–,–,–,–,–
NCI-H2228,0.891,0.914,0.714,0.858,0.645,–,–,–,–,–,1.24,0.752,0.876,0.552,0.321,–,–,–,–,–
NCI-H2342,1.03,1.05,1.02,1.22,0.957,0.81,0.853,0.78,0.78,0.831,–,–,–,–,–,0.703,0.778,0.786,0.63,0.748
CAL-12T,1.12,1.19,1,1.19,0.656,–,–,–,–,–,1.09,1.16,1.24,0.423,0.182,–,–,–,–,–
NCI-H1299,1.12,1.07,1.11,1.03,1.07,–,–,–,–,–,1.05,1.06,1.08,1.06,0.947,–,–,–,–,–
NCI-H650,1.1,1.02,1.02,1.09,0.8,0.358,0.302,0.338,0.385,0.301,–,–,–,–,–,0.287,0.336,0.283,0.265,0.304
SW 900,0.826,0.949,0.571,1.11,0.586,0.452,–,–,0.396,0.442,–,–,–,–,–,–,0.461,0.449,0.403,0.449
NCI-H661,1.06,1.05,0.99,1.02,0.941,0.594,0.546,0.546,0.573,0.534,–,–,–,–,–,0.561,0.568,0.506,0.426,0.337
ABC-1,1.19,0.973,0.971,1.11,0.907,1.04,1.08,0.957,1.22,0.97,–,–,–,–,–,0.993,1.18,0.955,0.708,0.726
NCI-H1703,0.337,–,0.315,0.316,0.346,–,–,–,–,–,0.735,0.902,0.386,0.195,0.14,–,–,–,–,–
